Results on 3 substances are retold here after PMC11345766, “Computational Design of Pore-Forming Peptides with Potent Antimicrobial and Anticancer Activities” (Journal of Medicinal Chemistry, 2024).

pIC50: −log10 of the molar value. Ends that are not written are not given here.

The subject of data set [1] is E. faecalis ATCC 700802 (VAN). The following applies: E. faecalis / ATCC 700802 / VAN / Prot. d; Prot. d.
A further data set concerns E. faecalis JH2-2 (WT). Particulars: E. faecalis / JH2-2 / WT / Prot. b; Prot. b.
The subject of a further data set is E. faecalis UCN41 (VAN). Particulars: E. faecalis / UCN41 / VAN / Prot. b; Prot. b.
In data set [2] the test system is E. faecium ATCC 700221 (VAN, TEI). Particulars: E. faecium / ATCC 700221 / VAN, TEI / Prot. d; Prot. d.
Data set [3] concerns E. faecium BM4147 (AMX, VAN). Particulars: E. faecium / BM4147 / AMX, VAN / Prot. b; Prot. b.
In data set [4] the test system is E. faecium Z906 (VAN, TEI, LNZ). Particulars: E. faecium / Z906 / VAN, TEI, LNZ / Prot. c; Prot. c.
Data set [5] deals with K. pneumoniae E1267 (GEN, AMI). The following applies: K. pneumoniae / E1267 / GEN, AMI / Prot. c; Prot. c.
The test system of data set [6] is P. aeruginosa K12 (AMI, IMI, MER, CTZ, PIT). Particulars: P. aeruginosa / K12 / AMI, IMI, MER, CTZ, PIT / Prot. c; Prot. c.
A further data set deals with P. aeruginosa PA01 (WT). Particulars: P. aeruginosa / PA01 / WT / Prot. d; Prot. d.
The next data set has as its system P. aeruginosa PA14 (WT). Particulars: P. aeruginosa / PA14 / WT / Prot. d; Prot. d.
In data set [7] the test system is S. aureus ATCC 29213 (Clinical). The following applies: S. aureus / ATCC 29213 / Clinical / Prot. c; Prot. c.
For data set [8], the system named is S. aureus ATCC BAA-1556 (MET). The following applies: S. aureus / ATCC BAA-1556 / MET / Prot. d; Prot. d.
Data set [9] deals with murine macrophages RAW 264.7. The following applies: 24 h. The method in brief: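 RAW 264.7 murine macrophages seeded at 4 × 10^4 cells/well in DMEM with 2% FBS, then exposed to peptides (2–128 μM) for 24 h at 37 °C. Viability by MTT (0.5 mg/mL, 4 h) reduction to formazan, dissolved in acidified isopropanol, read at OD570; untreated cells as negative control.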
Data set [10] has as its system HL-60, K-562, MCF-7 and HCT-116 cells. The data set can be described thus: Viability by flow cytometry DiOC6/7AAD staining, effect of pH and media. Particulars: 10 μM, 1 h; RPMI, DMEM, PBS at pH 8, 7, 6 and ∼7.6. In kind it is cell-based, human. As for the experimental part: To investigate the effect of pH and media on anticancer activity, we further tested the peptides against four cell lines, HL-60, K-562, and MCF-7, and the colon cancer cells HCT-116, cultured in three different media, namely, RPMI, DMEM, and PBS, each adjusted to three different pH values 8, 7, and 6, and additionally one case without pH adjustment (∼7.6) (Figure 6c). To avoid pH changes due to the natural buffering of the CO2-bicarbonate system used in cell culture, the peptides were tested at a concentration of 10 μM for only 1 h, as the cell lysis effect was already apparent within 30 min of exposure (Figure S9d).
Effects of pH and culture medium on the anticancer activity of peptides against acute myeloid leukemia HL-60, chronic myeloid leukemia K-562, breast adenocarcinoma MCF-7, and colon cancer cells HCT-116 cultured in three different media RPMI (#21875034, Gibco), DMEM (#LM-D1110/500, Biosera), and PBS adjusted to three different pH values 8, 7, and 6, and a medium without pH adjustment (∼7.6), were tested using flow cytometry DiOC6/7AAD (3,3-dihexyloxacarbocyanine iodide/7-amino-actinomycin D) staining assay, as described previously.[102] Media pH was adjusted twice, i.e., 1 day before the experiment and immediately before the experiment. Medium was supplemented with 10% heat-inactivated FBS, glutamine, sodium pyruvate, and antibiotics (100 U/mL penicillin and 100 μg/mL streptomycin). […] To determine cell viability, cells were incubated with DiOC6 (Thermo Fisher Scientific) and 7AAD (Thermo Fisher Scientific) for 15 min at 37 °C and cell viability was measured using a BriCyte E6 flow cytometer (Mindray); viable cells were considered as DiOC6-positive and 7AAD-negative.
The effect of pH on peptide activity in cancer cells was evaluated by the multiway ANOVA followed by Tukey post hoc test. Regarding the comparison of the effect of the medium, we analyzed the data from Figure 6c by comparing RPMI medium and DMEM of the same pH, and statistical significance was assessed using the multiway ANOVA followed by Tukey post hoc test. […]

Turning to “KKKKLKKILKKLFQFINQLDNQLQDIKKKK-NH2 [LP18]”, the MIC was over 60 µM in data set [1]; over 32 µM in the data set on E. faecalis JH2-2 (WT); over 32 µM with E. faecalis UCN41 (VAN); over 60 µM in data set [2]; 4 µM in data set [3]; 16 µM in [4]. Also, the MIC was over 32 µM in data set [5]; over 32 µM in [6]; 3.1 µM in the data set on P. aeruginosa PA01 (WT); 3.1 µM against P. aeruginosa PA14 (WT); over 32 µM in data set [7]; over 60 µM in data set [8]. The substance further showed a pIC50 in [9] of 4.60.

For “KKKKLKKILKKLFQFINQLDNQLQDIKQNK-NH2 [LP1]”, the MIC was over 60 µM in [1]; over 32 µM in the data set on E. faecalis JH2-2 (WT); over 32 µM against E. faecalis UCN41 (VAN); 12.5 µM in [2]; 16 µM in [3]; over 32 µM in [4]. The minimum inhibitory concentration (MIC) was over 32 µM in data set [5]; over 32 µM in data set [6]; 3.1 µM with P. aeruginosa PA01 (WT); 3.1 µM against P. aeruginosa PA14 (WT); over 32 µM in data set [7]; over 60 µM in data set [8]. For the same substance, the pIC50 in data set [9] was 4.36. For the same substance, the “Activity against cancer cells (cell viability) as a function of pH and medium” value in data set [10] is listed as “pH-dependent activity”.

As to “H-HHHHLKKILKKLFQFINQLDNQLQDIHHHH-OH [LP40]”, the “Activity against cancer cells (cell viability) as a function of pH and medium” value in [10] was “pH-dependent activity”.

As usually defined, the MIC is the lowest concentration that inhibits growth of the organism. The pIC50 is the negative decadic logarithm of the IC50, by convention in mol/L.
